Measurements taken from patent US11274314B2, “Herbicide safener combinations for acetyl co-enzyme a carboxylase herbicide resistant plants” (priority 2016, dated 2022).

Assays:
[1] = system: quizalofop tolerant mutant wheat accessions and non-mutant check; assay: Cross-resistance study within the ACCase herbicide mode of action, plant survival; format: in vivo, Triticum aestivum L.; conditions: for survival: 28 DAT, clethodim 65, sethoxydim 264, fluazifop 361 g ai ha^−1, clethodim + 10.5 g ai ha^−1 quizalofop
Experimental: (§1) Dose response. A dose response study was completed with 11, 23, 46, 92, and 184 g quizalofop ha^−1. Seven DAT the tops of plants were cut off above the newest above-ground growing point. Binomial evaluation of plant survival was performed 28 DAT. Differences were uncovered in the whole plant sensitivity to increasing application rates of quizalofop. […] Resistant to susceptible ratios for this experiment ranged from 1.6 to 7.5 based on survival/death of the plants. Cross-resistance. A cross-resistance study was conducted within the ACCase herbicide mode of action using herbicides normally lethal to wheat. Clethodim, sethoxydim, and fluazifop were used at rates of 65, 264, and 361 g ai ha^−1, plus a treatment of clethodim and 10.5 g ai ha^−1 quizalofop. Seven DAT the tops of plants were cut off above the newest above-ground growing point. Binomial evaluation of plant survival was performed 28 DAT. Tolerance of quizalofop mutants to clethodim and sethoxydim was low (Table 1). The presence of any cross tolerance presents evidence that stacking resistant ACCase copies into a single plant could lead to resistance to additional herbicides. At this stage only a third of the total ACCase in the plant would have a mutation and contain tolerance to ACCase inhibitors if the mutation is target-site-based. DNA sequencing. DNA was collected from 26 quizalofop-tolerant phenotypes. Genome-specific primers were developed to amplify sequences from the A, B, and D ancestral wheat genomes. Sequenced results were compared to previously cloned non-mutant wheat sequences to determine any nucleotide substitutions present. […] This mutation on the A genome was found in eight accessions, on the B genome in nine accessions, and on the D genome in nine accessions. No accession had more than one of these SNPs. The mutation was a C to T substitution resulting in an alanine to valine change (FIG. 7). Each accession with higher survival than the background contained one of these SNPs. Based on the chromatograph patterns, the majority these SNPs are also believed to be homozygous in the plant. ACCase enzyme characterization. An in-vitro enzyme assay was conducted to observe ACCase in conjunction with quizalofop directly to determine if the presence of ACCase mutations decreases the ability of herbicides to inhibit ACCase activity. Four quizalofop concentrations of 0.1, 1, 10, and 100 μM were included in the assay along with a non-treated treatment. The experiment included four accessions which included a representative from the three mutations detected and non-mutagenized wheat. […] Calculated at the 125 level, the resistant to susceptible value for the A genome was 4.57, the B genome was 3.57 and the D genome was 10.86.

[2] = system: single copy varieties AF28-A, AF26-B, AF10-D; assay: Safener potentiation of ACCase herbicide resistance in single copy wheat varieties; format: in vivo; conditions: safener combined with ACCase herbicide; single copy varieties vs multiple copy or multiple genome lines
[3] = system: ACCase of non-mutagenized winter wheat; assay: In-vitro ACCase enzyme assay, non-mutagenized wheat; format: biochemical; conditions: non-mutagenized winter wheat vs mutant accessions; 0.1-100 μM
Experimental: (§2) Dose response. A dose response study was completed with 11, 23, 46, 92, and 184 g quizalofop ha^−1. Seven DAT the tops of plants were cut off above the newest above-ground growing point. Binomial evaluation of plant survival was performed 28 DAT. Differences were uncovered in the whole plant sensitivity to increasing application rates of quizalofop. […] Resistant to susceptible ratios for this experiment ranged from 1.6 to 7.5 based on survival/death of the plants. Cross-resistance. A cross-resistance study was conducted within the ACCase herbicide mode of action using herbicides normally lethal to wheat. Clethodim, sethoxydim, and fluazifop were used at rates of 65, 264, and 361 g ai ha^−1, plus a treatment of clethodim and 10.5 g ai ha^−1 quizalofop. Seven DAT the tops of plants were cut off above the newest above-ground growing point. Binomial evaluation of plant survival was performed 28 DAT. Tolerance of quizalofop mutants to clethodim and sethoxydim was low (Table 1). […] The experiment included four accessions which included a representative from the three mutations detected and non-mutagenized wheat. […] Calculated at the 125 level, the resistant to susceptible value for the A genome was 4.57, the B genome was 3.57 and the D genome was 10.86.

[4] = system: ACCase, D genome mutation (alanine to valine at position 2004); assay: In-vitro ACCase enzyme assay, D genome SNP accession; format: biochemical, wheat; conditions: for ACCase tolerance to quizalofop vs background: D genome SNP
Experimental: as §1, with “The mutation was a C to T substitution resulting in an alanine to valine change (FIG. 7). Each accession with higher survival than the background contained one of these SNPs. Based on the chromatograph patterns, the majority these SNPs are also believed to be homozygous in the plant. ACCase enzyme characterization. An in-vitro enzyme assay was conducted to observe ACCase in conjunction with quizalofop directly to determine if the presence of ACCase mutations decreases the ability of herbicides to inhibit ACCase activity. Four quizalofop concentrations of 0.1, 1, 10, and 100 μM were included in the assay along with a non-treated treatment.” left out

[5] = system: quizalofop-tolerant winter wheat accessions vs non-mutant Hatcher wheat; assay: Visual evaluation of quizalofop injury on quizalofop-tolerant accessions; format: in vivo, Triticum aestivum L.; conditions: nearly all of 18 quizalofop-tolerant accessions; 21.05 g ai ha^−1; 28 DAT; compared with non-mutant Hatcher
Experimental: Plants were screened for visual injury, whole-plant quizalofop tolerance differences, cross-tolerance, and evaluated genotypically and enzymatically.
Visual evaluation. 18 quizalofop-tolerant accessions were treated with 21.05 g ai ha^−1 quizalofop, a discriminating dose based on previous studies. Plants were evaluated 28 days after treatment (DAT) for visible injury to quizalofop on a scale of 0 to 100%, with 0 being no injury and 100 being complete desiccation. […] The accessions had few completely dead plants, with the exception of the one accession not different than the background.

[6] = system: ACCase, A genome mutation (alanine to valine at position 2004); assay: In-vitro ACCase enzyme assay, A genome SNP accession; format: biochemical, wheat
Experimental: as §2

[7] = system: ACCase, B genome mutation (alanine to valine at position 2004); assay: In-vitro ACCase enzyme assay, B genome SNP accession; format: biochemical, wheat
Experimental: as §2

[8] = system: single-gene (AF28, AF26, AF10) and two-gene (AB17, AB157, BD4, AD91) wheat lines; assay: Field crop safety trial with and without safener
Experimental: During the 2014-2015 growing season, a field crop safety trial was performed to assess these lines for relative levels of resistance and performance under two application timings, applied with and without the safener cloquintocet-mexyl.
Determine relative levels of resistance between two-gene lines and single-gene lines. Determine which application timing (early or late spring) provided the highest crop safety.
One quizalofop susceptible line (Hatcher), four two-gene breeding lines (CO14A006 [AB17], CO14A041[AB157], CO14A075 [BD4], CO14A065 [AD91) and three one-gene parent lines (AF28, AF26, and AF10) were compared. A split-split plot design was used in which quizalofop p-ethyl was applied at 92.5 g ai ha^−1 with 1% MSO corresponding to the highest likely label application rate on March 31st at the tillering growth stage, and on May 2nd at the jointing growth stage. Cloquintocet safener (10 g ai/ha) was included in the split-split plot design. In the analysis, visual injury ratings and height were assessed one month before harvest, and grain yield in grams per plot was also used as a response factor. The SAS statistical package and proc mixed were used for analysis with a tukey-adjusted p-value of 0.05 as the cutoff value. The analysis was sliced by the cloquintocet factor, and comparisons of timing were made within lines.

`CC(Oc1ccc(Oc2ccc(C(F)(F)F)cn2)cc1)C(=O)O` (centres unmarked) [Fluazifop, (.+−.)-2-[4-[[5-(trifluoromethyl)-2-pyridinyl]oxy]phenoxy]propanoic acid] showed a survival ([1]; Accession 0 (non-mutant check)) of 0%, a survival ([1]; Accession 1) of 0% and a survival ([1]; Accession 2) of 0%. The survival ([1]; Accession 3) was 0%, the survival ([1]; Accession 4) was 0% and the survival ([1]; Accession 5) was 0%. The survival ([1]; Accession 6) was 0%, the survival ([1]; Accession 7) was 0% and the survival ([1]; Accession 8) was 0%. For the same compound, the survival ([1]; Accession 9) was 0%, the survival ([1]; Accession 10) was 0% and the survival ([1]; Accession 11) was 0%. It also gave a survival ([1]; Accession 12) of 0%, a survival ([1]; Accession 13) of 0% and a survival ([1]; Accession 14) of 0%. For the same compound, the survival ([1]; Accession 15) was 0%, the survival ([1]; Accession 16) was 0% and the survival ([1]; Accession 17) was 0%.
`O=C(O)COc1ccc(Cl)c2cccnc12` [cloquintocet acid] was tested, and the “potentiation of resistance to acetyl-CoA carboxylase herbicides” value [2] was “just as effectively resistance as the multiple copy lines”.
`CCCC(=NOCC)C1=C(O)CC(CC(C)SCC)CC1=O` (centres unmarked) [Sethoxydin, 2-[1-(ethoxyimino)-butyl]-5-[2-(ethylthio)propyl]-3-hydroxy-2-cylohexen-1-one] showed a survival ([1]; Accession 0 (non-mutant check)) of 0%, a survival ([1]; Accession 1) of 0% and a survival ([1]; Accession 2) of 0%. The survival ([1]; Accession 3) was 0%, the survival ([1]; Accession 4) was 0% and the survival ([1]; Accession 5) was 0%. The survival ([1]; Accession 6) was 0%, the survival ([1]; Accession 7) was 0% and the survival ([1]; Accession 8) was 0%. The survival ([1]; Accession 9) was 0%, the survival ([1]; Accession 10) was 0% and the survival ([1]; Accession 11) was 8%. The survival ([1]; Accession 12) was 8%, the survival ([1]; Accession 13) was 0% and the survival ([1]; Accession 14) was 0%. It also gave a survival ([1]; Accession 15) of 0%, a survival ([1]; Accession 16) of 0% and a survival ([1]; Accession 17) of 0%. The “Tolerance of quizalofop mutants” value ([1]; summary of Table 1) was “low”.
`CC(Oc1ccc(Oc2cnc3cc(Cl)ccc3n2)cc1)C(=O)O` (centres unmarked) [quizalofop, (.+−.)-2-[4-[(6-chloro-2-quinoxalinyl)-oxy]phenoxy]propanoic acid] was tested, and the “ACCase sensitivity to quizalofop” value [3] was “greater sensitivity”, the “ACCase tolerance to quizalofop vs background” value ([4]; 10 μM quizalofop) was “higher than background levels of tolerance” and the “ACCase tolerance to quizalofop vs background” value ([4]; 100 μM quizalofop) was “higher than background tolerance”. For the same compound, the “resistant to susceptible value, calculated at the 125 level” value (“resistant … calculated at the 125 level” below) ([4]; D genome, vs non-mutagenized wheat) was 10.86, the “visible injury to quizalofop on a scale of 0 to 100%” value [5] was “more tolerant to quizalofop than non-mutant Hatcher wheat” and the “ACCase tolerance to quizalofop vs background” value ([6]; A genome SNP, 100 μM quizalofop) was “higher than background tolerance”. For the same compound, the “resistant … calculated at the 125 level” value ([6]; A genome, vs non-mutagenized wheat) was 4.57, the “ACCase tolerance to quizalofop vs background” value ([7]; B genome SNP, 10 μM quizalofop) was “higher than background levels of tolerance” and the “resistant … calculated at the 125 level” value ([7]; B genome, vs non-mutagenized wheat) was 3.57.
With `CCOC(=O)[C@@H](C)Oc1ccc(Oc2cnc3cc(Cl)ccc3n2)cc1` [quizalofop p-ethyl] the “crop injury (reduced height, reduced yield, or increased injury rating)” value ([8]; May (jointing) compared to March (tillering) treatment timing) was “consistently higher crop injury”, the crop safety ([8]; all two-gene lines, 92.5 g ai ha^−1, no safener, vs single-gene lines) was “much higher levels of crop safety” and the “crop injury compared to the untreated control” value ([8]; single-gene line AF28, 92.5 g ai ha^−1, no safener) was “only showed injury with the May treatment timing”. The “crop injury compared to the untreated control” value ([8]; single-gene lines, 92.5 g ai ha^−1 with 1% MSO, no safener, March and May timings) was “significant injury”, the crop injury ([8]; two-gene line AD91, 92.5 g ai ha^−1, with or without safener, March or May) was “no crop injury for any treatment combination” and the crop injury ([8]; two-gene lines AB157 and AB17, 92.5 g ai ha^−1, no safener) was “crop injury in the May treatment timing”.
Compound `CCSC(C)CC1CC(=O)C(/C(CC)=N/OC/C=C/Cl)=C(O)C1` (centres unmarked) [Clethodim, (E,E)-(.+−.)-2-[1-[[(3-chloro-2-propenyl)oxy]imino]propyl]-5-[2-(ethylth-io)propyl]-3-hydroxy-2-cyclohexen-1-one] has a survival ([1]; Accession 0 (non-mutant check)) of 0%, a survival ([1]; Accession 1) of 10% and a survival ([1]; Accession 2) of 0%. It also gave a survival ([1]; Accession 3) of 0%, a survival ([1]; Accession 4) of 0% and a survival ([1]; Accession 5) of 0%. It also gave a survival ([1]; Accession 6) of 0%, a survival ([1]; Accession 7) of 0% and a survival ([1]; Accession 8) of 25%. For the same compound, the survival ([1]; Accession 9) was 17%, the survival ([1]; Accession 10) was 0% and the survival ([1]; Accession 11) was 0%. For the same compound, the survival ([1]; Accession 12) was 17%, the survival ([1]; Accession 13) was 0% and the survival ([1]; Accession 14) was 0%. It also gave a survival ([1]; Accession 15) of 0%, a survival ([1]; Accession 16) of 0% and a survival ([1]; Accession 17) of 0%.
